Test results taken from the supplement of paper PMC11061612.

Legend:
Test in all cases: Bliss excess, mean over the matrix (fraction); higher = more synergy
[1] = system: LNZTA3WT4 (Low Grade Glioma)
Outline: (§1)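 Bliss excess equals the observed combination effect minus the expected value EA + EB − EA·EB, where EA and EB are the effects of each agent alone. Combination Emax is the second-highest inhibition within the matrix. Inhibition was scaled from CellTiter-Glo 2.0 luminescence, with 0 set by vehicle wells and 1 by blank wells, after 72 hours of two-drug dosing of cells plated in 1536-well plates.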

[2] = system: EW-11 (Ewing's Sarcoma)
Outline: as §1

[3] = system: FTC-133 (Thyroid Gland Carcinoma)
Outline: as §1

[4] = system: NCI-H2052 (Mesothelioma)
Outline: as §1

[5] = system: CAL-33 (Oral Cavity Carcinoma)
Outline: as §1

[6] = system: HuCCT1 (Biliary Tract Carcinoma)
Outline: as §1

[7] = system: L-428 (Hodgkin's Lymphoma)
Outline: as §1

[8] = system: ALL-PO (B-Lymphoblastic Leukemia)
Outline: as §1

[9] = system: OV-56 (Ovarian Carcinoma)
Outline: as §1

[10] = system: NCI-H209 (Small Cell Lung Carcinoma)
Outline: as §1

[11] = system: GAMG (Glioblastoma)
Outline: as §1

[12] = system: SW1710 (Bladder Carcinoma)
Outline: as §1

[13] = system: NUGC-4 (Gastric Carcinoma)
Outline: as §1

[14] = system: OVCAR-5 (Ovarian Carcinoma)
Outline: as §1

[15] = system: BFTC-909 (Kidney Carcinoma)
Outline: as §1

[16] = system: HH (T-Cell Non-Hodgkin's Lymphoma)
Outline: as §1

[17] = system: MHH-CALL-2 (B-Lymphoblastic Leukemia)
Outline: as §1

[18] = system: LOXIMVI (Melanoma)
Outline: as §1

[19] = system: YAPC (Pancreatic Carcinoma)
Outline: as §1

[20] = system: ESS-1 (Other Solid Carcinomas)
Outline: as §1

SMILES	Bliss excess [1]	Bliss excess [2]	Bliss excess [3]	Bliss excess [4]	Bliss excess [5]	Bliss excess [6]	Bliss excess [7]	Bliss excess [8]	Bliss excess [9]	Bliss excess [10]	Bliss excess [11]	Bliss excess [12]	Bliss excess [13]	Bliss excess [14]	Bliss excess [15]	Bliss excess [16]	Bliss excess [17]	Bliss excess [18]	Bliss excess [19]	Bliss excess [20]
CC(=O)c1c(C)c2cnc(Nc3ccc(N4CCNCC4)cn3)nc2n(C2CCCC2)c1=O [Palbociclib] + Cn1cnc2c(F)c(Nc3ccc(Br)cc3Cl)c(C(=O)NOCCO)cc21 [Selumetinib] (first compound max 10 µM, 7x7, partner max 10 µM)	-0.0459	-0.0298	-0.0403	-0.0124	0.0345	0.0282	-0.0083	0.0243	-0.0587	-0.0528	-0.0072	0.0054	-0.0292	-0.0041	0.0424	-0.0471	-0.0407	0.0724	0.0156	-0.0097
CN(CCO)CC[C@H](CSc1ccccc1)Nc1ccc(S(=O)(=O)NC(=O)c2ccc(N3CCC([C@@H](O)c4ccccc4-c4ccc(Cl)cc4)CC3)cc2)cc1S(=O)(=O)C(F)(F)F [AZD4320] + C[C@@H](Nc1cc(F)cc(F)c1)c1cc(C(=O)N(C)C)cc2c(=O)cc(N3CCOCC3)oc12 [AZD8186] (first compound max 1 µM, 7x7, partner max 3 µM)	-0.0197	-0.0358	0.0718	-0.0278	-0.0039	0.0583	0.0393	0.0509	-0.0031	0.0529	0.0337	0.0263	0.0385	-0.0133	-0.0011	0.012	0.042	-0.0239	-0.0258	-0.01
Cn1cnc2c(F)c(Nc3ccc(Br)cc3Cl)c(C(=O)NOCCO)cc21 [Selumetinib] + C=CCn1c(=O)c2cnc(Nc3ccc(N4CCN(C)CC4)cc3)nc2n1-c1cccc(C(C)(C)O)n1 [AZD1775] (first compound max 10 µM, partner max 1 µM)	-0.0443	-0.0464	-0.0465	-0.0747	-0.0194	-0.0385	-0.0744	0.0229	-0.0766	-0.0211	0.0063	-0.0409	-0.0286	-0.0074	-0.0047	-0.0605	-0.0087	0.0822	0.016	-0.052
CN(CCO)CC[C@H](CSc1ccccc1)Nc1ccc(S(=O)(=O)NC(=O)c2ccc(N3CCC([C@@H](O)c4ccccc4-c4ccc(Cl)cc4)CC3)cc2)cc1S(=O)(=O)C(F)(F)F [AZD4320] + Cn1cnc2c(F)c(Nc3ccc(Br)cc3Cl)c(C(=O)NOCCO)cc21 [Selumetinib] (first compound max 1 µM, 7x7, partner max 3 µM)	-0.0656	-0.0786	-0.0023	0.0283	0.0749	0.0309	0.0143	0.0571	-0.0063	-0.0215	0.0039	0.0287	0.0784	-0.0282	0.0212	-0.0255	0.298	0.0352	0.0082	-0.0507
CC1(C)CCC(CN2CCN(c3ccc(C(=O)NS(=O)(=O)c4ccc(NCC5CCOCC5)c([N+](=O)[O-])c4)c(Oc4cnc5[nH]ccc5c4)c3)CC2)=C(c2ccc(Cl)cc2)C1 [Venetoclax] + C1CN(CCC1(C(=O)N[C@@H](CCO)C2=CC=C(C=C2)Cl)N)C3=NC=NC4=C3C=CN4 [Capivasertib] (first compound max 1 µM, 7x7, partner max 3 µM)	-0.0297	-0.0335	-0.0473	-0.0269	0.0084	-0.0734	-0.0577	0.0446	-0.0323	-0.0005	-0.0185	-0.0896	-0.0673	-0.0649	-0.0292	0.0213	-0.0702	-0.0142	-0.0461	-0.0498
COc1cccc(OCCCN)c1-c1cc(Nc2cnc(C#N)cn2)n[nH]1 [Prexasertib] + CCc1c2c(nc3ccc(O)cc13)-c1cc3c(c(=O)n1C2)COC(=O)[C@]3(O)CC [SN-38] (first compound max 1 µM, 7x7, partner max 0.3 µM)	0.0266	-0.153	-0.0278	-0.0138	-0.0329	-0.0044	-0.0235	-0.0336	0.009	0.0053	0.0292	0.0504	-0.0568	-0.0162	0.0075	0.0727	0.0227	-0.0455	-0.0776	-0.0183
